Experimental data: paper PMC10830309, “Inhibition of Pancreatic Lipase by Flavonoid Derivatives: In Vitro and In Silico Investigations” (Advances in Pharmacological and Pharmaceutical Sciences, 2024)
Read-outs that look alike come from different tables or passages of the source.

Tests used:
[1] = target: T1, Porcine pancreatic lipase, type II (Sus scrofa, UniProt P00591); test: Pancreatic lipase inhibition assay (spectrophotometric, p-NPP substrate); format: biochemical
T1 construct: purchased Merck Millipore / Sigma-Aldrich L-3126
T1 sequence (P00591 1-450): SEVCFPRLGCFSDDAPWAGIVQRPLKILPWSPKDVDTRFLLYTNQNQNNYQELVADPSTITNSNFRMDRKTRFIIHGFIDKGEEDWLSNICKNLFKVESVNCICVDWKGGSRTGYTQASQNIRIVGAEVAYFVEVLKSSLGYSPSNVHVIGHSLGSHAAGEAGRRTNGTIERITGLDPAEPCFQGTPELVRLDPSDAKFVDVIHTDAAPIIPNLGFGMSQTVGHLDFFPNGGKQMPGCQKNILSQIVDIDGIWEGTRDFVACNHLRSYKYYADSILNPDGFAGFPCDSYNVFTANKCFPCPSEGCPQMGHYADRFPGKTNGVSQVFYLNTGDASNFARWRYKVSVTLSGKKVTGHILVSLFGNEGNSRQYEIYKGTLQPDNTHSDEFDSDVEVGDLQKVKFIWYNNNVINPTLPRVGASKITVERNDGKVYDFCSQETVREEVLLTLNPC
Method: Following the experimental conditions described in the previous study [28], the assay was performed as follows: each sample solution, composed of 50 mM Tris-HCl buffer at pH 8.0, tested compound, and 10 mg/ml pancreatic lipase enzyme, was sequentially added. The resulting mixture was thoroughly mixed and incubated for 10 minutes at 37°C. Subsequently, the p-NPP substrate solution was added and mixed well. The mixture was then further incubated for 7 minutes at 37°C. The absorbance of the solution was measured at 405 nm. For the control solution, the same procedure was followed, replacing the tested compound with 10% DMSO. The blank solution was prepared with no enzyme added.
The percentage of pancreatic lipase inhibition (I%) was calculated using the following equation:(1) I%=∆A0−∆A/A0×100.
Here, ∆A0 represents the absorbance difference between the control and the blank, ∆A represents the absorbance difference between the sample and the blank, and A0 represents the absorbance of the control.
A linear regression equation was constructed to establish the correlation between the logarithm of the concentration (µM) of the tested substances and the percentage of pancreatic lipase inhibition. From this equation, the IC50 value, which indicates the concentration of the compound required for 50% inhibition, was determined.

[2] = target: T1, Porcine pancreatic lipase, type II; test: Enzymatic inhibition kinetic analysis (Michealis–Menten and Lineweaver–Burk plots); format: biochemical; settings: for Mode of enzyme inhibition: Michealis–Menten and Lineweaver–Burk plots; for Vmax in the presence of inhibitor: p-NPP 12.5-200 μM, from Michealis–Menten plots
Method: Ten semisynthetic flavonoid derivatives, 2 flavanones and 8 flavones (Figure 1), reported in the previous works were used in this study.
The substrate p-NPP was examined at five distinct concentrations ranging from 12.5 μM to 200 μM. The flavonoid derivative was assessed for its lipase inhibition capacity over time at concentrations of 15 μM and 30 μM. Simultaneously, a negative control sample without the inhibitor was utilized for comparison. […] Inhibition constants (Ki) and maximum velocity (Vmax) were derived from the Michealis–Menten plots, and the mode of enzyme inhibition was elucidated through the Lineweaver–Burk plots. All parameters and graphical representations were calculated and generated using GraphPad Prism 8.4.3 software.

[3] = parameters: method as in PMID 11261530; settings: dietary contexts, clinical use; cited from earlier work
[4] = p-NPP substrate, 50 mM Tris-HCl pH 8.0, 37°C, absorbance 405 nm, read-out: IC50 for pancreatic lipase

SMILES | IC50 [1, 4] | IC50 [1] | other results
COc1cc2oc(-c3ccccc3)cc(=O)c2c(O)c1OC [F03] | > 500 µM | – | –
COc1ccc(C2CC(=O)c3c(O)cc(OC)cc3O2)cc1 (stereo not shown) [F02] | 76.2 ± 3.22 µM | – | –
C=CCOc1cc2oc(-c3ccccc3)cc(=O)c2c(O)c1OCC=C [F05] | – | 341 ± 24.1 µM | –
COc1cc(O)c2c(c1)OC(c1ccc(O)cc1)CC2=O (stereo not shown) [F01, 5-hydroxy-2-(4-hydroxyphenyl)-7-methoxychroman-4-one] | 17.7 ± 1.43 µM | – | Mode of enzyme inhibition [2]: competitive; Vmax in the presence of inhibitor [2]: 0.03272 ΔA·min^−1; Ki ([2]; read-out: Inhibition constant (Ki)): 7.16 µM
CCOc1cc2oc(-c3ccccc3)cc(=O)c2c(O)c1OCC [F04] | – | > 500 µM | –
CCC(=O)Oc1cc2oc(-c3ccccc3)cc(=O)c2c(OC(=O)CC)c1OC(=O)CC [F07] | – | > 500 µM | –
CCOc1cc(O)c2c(=O)cc(-c3ccc(OC)c(OCC)c3)oc2c1 [F10] | – | > 500 µM | –
COc1cc(OC)c2c(=O)cc(-c3ccc(OC)c(OC)c3)oc2c1 [F08] | – | 270 ± 14.6 µM | –
COc1cc(O)c2c(=O)cc(-c3ccc(OC)c(OC)c3)oc2c1 [F09] | 465 ± 11.8 µM | – | –
CCCCCCCCCCC[C@@H](C[C@@H]1OC(=O)[C@H]1CCCCCC)OC(=O)[C@H](CC(C)C)NC=O [Orlistat, reference compound] | – | – | Reduction of fat absorption [3]: approximately 30%; Mode of enzyme inhibition [2]: competitive; Vmax in the presence of inhibitor [2]: 0.03295 ΔA·min^−1
CC(=O)Oc1cc2oc(-c3ccccc3)cc(=O)c2c(OC(C)=O)c1OC(C)=O [F06] | – | > 500 µM | –
